For this experiment, the target named is T1, OX2R (Homo sapiens, UniProt O43614).
T1 construct: expressed in transfected cells; host or cells: CHO cells (membranes)
T1 sequence (O43614 1-444): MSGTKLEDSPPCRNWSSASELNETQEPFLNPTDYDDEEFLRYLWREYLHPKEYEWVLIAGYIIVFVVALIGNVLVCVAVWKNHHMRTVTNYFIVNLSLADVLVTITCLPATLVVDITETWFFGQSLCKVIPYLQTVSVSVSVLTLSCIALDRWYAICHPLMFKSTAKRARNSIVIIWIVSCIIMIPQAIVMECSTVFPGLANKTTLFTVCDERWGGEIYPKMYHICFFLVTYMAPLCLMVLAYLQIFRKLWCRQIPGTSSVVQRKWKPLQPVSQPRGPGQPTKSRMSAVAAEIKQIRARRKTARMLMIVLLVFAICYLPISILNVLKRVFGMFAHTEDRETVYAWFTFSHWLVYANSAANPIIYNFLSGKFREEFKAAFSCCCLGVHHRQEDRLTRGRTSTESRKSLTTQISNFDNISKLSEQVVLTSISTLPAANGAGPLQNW
As to the kind of experiment: radioligand binding assay, OX2 receptor. The note with it: membranes prepared from CHO cells expressing the OX2 receptor. As for the experimental part:
In a typical experiment the OX1 and OX2 receptor antagonistic activity of the compounds of the present invention was determined in accordance with the following experimental method. For intracellular calcium measurements, Chinese hamster ovary (CHO) cells expressing the rat orexin-1 receptor or the human orexin-2 receptor, are grown in Iscove's modified DMEM containing 2 mM L-glutamine, […], 1% hypoxanthine-thymidine supplement, 100 U/ml penicillin, 100 ug/ml streptomycin and 10% heat-inactivated fetal calf serum (FCS). The cells are seeded at 20,000 cells/well into Becton-Dickinson black 384-well clear bottom sterile plates coated with poly-D-lysine. All reagents were from GIBCO-Invitrogen Corp. The seeded plates are incubated overnight at 37° C. and 5% CO2. Ala-6,12 human orexin-A as the agonist is prepared as a 1 mM stock solution in 1% bovine serum albumin (BSA) and diluted in assay buffer (HBSS containing 20 mM HEPES, 0.1% BSA and 2.5 mM probenecid, pH7.4) for use in the assay at a final concentration of 70 pM. Test compounds are prepared as 10 mM stock solution in DMSO, then diluted in 384-well plates, first in DMSO, then assay buffer. On the day of the assay, cells are washed 3 times with 100 ul assay buffer and then incubated for 60 min (37° C., 5% CO2) in 60 ul assay buffer containing 1 uM Fluo-4AM ester, 0.02% pluronic acid, and 1% BSA. The dye loading solution is then aspirated and cells are washed 3 times with 100 ul assay buffer. 30 ul of that same buffer is left in each well. Within the Fluorescent Imaging Plate Reader (FLIPR, Molecular Devices), test compounds are added to the plate in a volume of 25 ul, incubated for 5 min and finally 25 ul of agonist is added. Fluorescence is measured for each well at 1 second intervals for 5 minutes and the height of each fluorescence peak is compared to the height of the fluorescence peak induced by 70 pM Ala-6,12 orexin-A with buffer in place of antagonist. For each antagonist, IC50 value (the concentration of compound needed to inhibit 50% of the agonist response) is determined. Alternatively, compound potency can be assessed by a radioligand binding assay (described in Bergman et. al. Bioorg. Med. Chem. Lett. 2008, 18, 1425-1430) in which the inhibition constant (Ki) is determined in membranes prepared from CHO cells expressing either the OX1 or OX2 receptor. The intrinsic orexin receptor antagonist activity of a compound which may be used in the present invention may be determined by these assays.

Compound “5-(3,5-chloromethylphenyl)-N-[(1,4-dimethyl-1,2,3,4-tetrahydroquinoxalin-6-yl)methyl]-2-(1-methyl-1H-pyrazol-4-yl)nicotinamide [2-14]” yielded a Ki of 0.15 nM. This lies in the sub-nanomolar range.
Compound `COc1cc(CNC(=O)c2cc(-c3cc(C)cc(C)c3)cnc2-c2cnn(C)c2)cnc1OC` [1-13, N-[(5,6-dimethoxypyridin-3-yl)methyl]-5-(3,5-dimethylphenyl)-2-(1-methyl-1H-pyrazol-4-yl)nicotinamide] gave a Ki of 4.8 nM.
Then `Cc1[nH]c2cc(CNC(=O)c3cc(-c4cc(Cl)cc(Cl)c4)cnc3-c3cnn(C)c3)ccc2c1C` [1-14, 5-(3,5-dichlorophenyl)-N-[(2,3-dimethyl-1H-indol-6-yl)methyl]-2-(1-methyl-1H-pyrazol-4-yl)nicotinamide], with 0.07 nM; and `COc1ccc(CNC(=O)c2cc(-c3cncc(C)c3)cnc2-c2cccc(F)c2)nc1OC` [3-7, N-[(5,6-dimethoxypyridin-2-yl)methyl]-6-(3-fluorophenyl)-5′-methyl-3,3′-bipyridine-5-carboxamide], with 0.32 nM; and `COc1ccc(CNC(=O)c2cc(-c3cncc(Cl)c3)cnc2-c2ccccc2)nc1OC` [3-15, 5′-chloro-N-[(5,6-dimethoxypyridin-2-yl)methyl]-6-phenyl-3,3′-bipyridine-5-carboxamide], with 0.45 nM.
Then `COc1ccc(CNC(=O)c2cc(-c3cc(C)cc(Cl)c3)cnc2N2CCCC2)cc1OC` [4-5, 5-(3-chloro-5-methylphenyl)-N-(3,4-dimethoxybenzyl)-2-pyrrolidin-1-ylnicotinamide], with 0.45 nM; and `COc1ccc(CNC(=O)c2cc(-c3cncc(C)c3)cnc2N2CCOCC2)nc1OC` [4-13, N-[(5,6-dimethoxypyridin-2-yl)methyl]-5′-methyl-6-morpholin-4-yl-3,3′-bipyridine-5-carboxamide], with 1.1 nM; and `COc1ccc(CNC(=O)c2cc(-c3cncc(C)c3)cnc2-n2ccc(C)n2)cc1Cl` [5-11, N-(3-chloro-4-methoxybenzyl)-5′-methyl-6-(3-methyl-1H-pyrazol-1-yl)-3,3′-bipyridine-5-carboxamide], with 0.95 nM.
In the case of `COc1ccc(CNC(=O)c2cc(-c3cncc(C)c3)cnc2C2CCCC2)cc1OC` [6-5, 6-cyclopentyl-N-(3,4-dimethoxybenzyl)-5-methyl-3,3′-bipyridine-5-carboxamide] it was 2.3 nM.
